Like-named read-outs stand apart in the source and are kept apart here.
What was measured:
CDK7/CycH = CDK7/CycH (Homo sapiens, UniProt P50613); test: CDK7/CycH inhibition (Tables A1, A2); assay type: biochemical
CDK9/CycT = CDK9/CycT (Homo sapiens, UniProt P50750); test: CDK9/CycT inhibition (Tables A1, A2); assay type: biochemical
Jurkat cells [1] = test: Jurkat proliferation assay (CellTiter-Glo); assay type: cell-based; settings: for IC50: Homo sapiens, Jurkat
Method: (§1) Jurkat cells were seeded at a density of 25,000 cells/well in 96-well plates. Cells were then treated with the indicated compounds in a 10-pt dose escalation format from 1 nM to 10 μM or DMSO control for 72 hours. After 72 hours, the cells were assayed using CellTiter-Glo Luminescent Cell Viability Assay (Promega) to determine cell viability by measuring the amount of ATP present in each sample cell population, which is an indicator of cell metabolic activity. […] All data points were performed in biological triplicate. Error bars are +/−SD.
as §1, with “hrs.” for “hours.”, “hrs,” for “hours, the”

CDK2/CycA = CDK2/CycA (Homo sapiens, UniProt P24941); test: CDK2/CycA inhibition (Tables A1, A2); assay type: biochemical
CDK12 = target: T1, CDK12 (Homo sapiens, UniProt Q9NYV4); test: Pulldown assay with biotin-THZ1, blot for Cyclin K; assay type: cell-based; settings: Jurkat cells treated with 1 uM or 200 nM
T1 construct: endogenous in cells; host or cells: Jurkat
Method: Specifically. […] Decreased pulldown of cyclin K with biotin-THZ1 indicated a loss of CDK12 binding.
(§2) 6 hours after treatment, cells were washed and harvested by resuspending in lysis buffer (50 mM Hepes pH 7.4, 150 mM NaCl, 1% NP-40, 5 mM EDTA, protease and phosphatase inhibitors) and lysing on ice 30 minutes. Lysates were cleared by centrifugation at 15,000 rpm 30 minutes. Biotin-labeled THZ1 was added to 1 uM to lysates and rotated at 4° C. overnight. Streptavidin-agarose beads were washed and 30 uL slurry was added to each lysate and rotated for 1 hour at 4° C. Beads were washed 5 times with lysis buffer and 50 uL 2×LDS buffer was added to each sample. Samples were boiled and equal volume of protein was loaded onto gel. Gel was transferred to nitrocellulose and blotted for Cyclin K and Cyclin H.

CDK7 = target: T2, CDK7 (Homo sapiens, UniProt P50613); test: Pulldown assay with biotin-THZ1, blot for Cyclin H; assay type: cell-based; settings: Jurkat cells treated with 1 uM or 200 nM
T2 construct: endogenous in cells; host or cells: Jurkat
Method: Compounds E9 and E17 were able to block pulldown of cyclin K at 1 μM and 200 nM. Specifically. […] Decreased pulldown of cyclin K with biotin-THZ1 indicated a loss of CDK12 binding.
as §2

Jurkat cells [2] = test: Growth assay with and without washout; assay type: cell-based; settings: 1 uM, 4 hours treatment, assayed 68 hours after washout
Method: Cells were treated with each compound for 4 hours and either no washout (no washout) or had compound removed by washing cells with media (washout). Sixty-eight (68) hours after washout, the cells were assayed for antiproliferative effects. Error bars indicate +/−SD.
4 hours after treatment, cells were either not treated or washed three times with RPMI media to remove all compound. Cells were replated and allowed to grow for 68 hours. Cells were assayed using celltiter glo (Promega) to determine cell viability by measuring the amount of ATP present, which is an indicator of cell metabolic activity. Results are graphed as luminescent values (FIG. 1).

[3] = test system: Pol II Ser2 phosphorylation and MCL1 levels; test: Washout expression assay (western blot); assay type: cell-based; settings: Jurkat cells, 1 uM, 4 hours, 6 hours
Method: 4 hours after treatment, cells were either not treated or washed three times with RPMI media to remove all compound. Cells were replated and allowed to grow for 6 hours. Cells were harvested, washed 3 times with PBS and resuspended in RIPA buffer (25 mM Tris-HCl (pH 7.6), 150 mM NaCl, 1% NP-40, 1% sodium deoxycholate, 0.1% SDS). Equal amount of protein was loaded onto gel and blotted for Pol II Ser2 (Millipore 04-1571), total pol II (Santa Cruz 17798), Tubulin (Cell Signaling 11H10) or MCL1 (Cell Signaling 4572S)

CDK12 and CDK13 = test: KiNativ kinome profiling; assay type: binding; settings: 1 μM, 6 hrs
Method: Jurkat cells were seeded at a density of 100 million cells/50 mL. Cells were treated with E9 (1 μM) or DMSO control for 6 hrs. Cells were washed twice with cold phosphate-buffered saline (PBS). PBS-washed cell pellets were flash frozen and subjected to KiNativt™ kinome profiling at ActivX Biosciences, Inc. according to their specifications using their desthiobiotin-ATP probe. Peptide sequences shown in Table A4 belong to the indicated kinase(s) and were detected by mass spectrometry (MS) under DMSO control conditions following enrichment for biotinylated proteins by streptavidin pulldown and subsequent proteolysis. Kinases labeled by the reactive desthiobiotin-ATP probe indicate that the kinase was accessible to desthiobiotin-ATP probe binding. Results shown are normalized to these paired DMSO controls and numbers represent the percentage (compared to DMSO control) of MS signal lost for sequences of an indicated kinase, eg—numbers approaching 100% indicate that test compound effectively out-competed the desthiobiotin ATP probe for binding to the kinase, resulting in decreased labeling and enrichment for peptides representing this kinase.

CDK12/CCNK complex = CDK12/CCNK complex (Homo sapiens, UniProt Q9NYV4); test: Electrospray ionization mass spectra of CDK12/CCNK complex after treatment; assay type: binding; settings: 1 hr at room temperature
Description: The zero-charge mass spectra in the upper panel and inset is the result of deconvolution of the raw mass spectrum in the lower panel. A. CCNK. C, phosphorylated CDK12. D, CDK12.
The zero-charge mass spectra in the upper panel and inset is the result of deconvolution of the raw mass spectrum in the lower panel. A, CCNK. B, phosphorylated and E-9 labeled CDK12. C, E-9 labeled CDK12.

[4] = test system: TAL1, RUNX1, and MYB mRNA transcripts; test: Jurkat gene expression analysis (qPCR); assay type: cell-based; settings: 1 μM, 6 hrs, Jurkat cells
Method: Jurkat cells were seeded at a density of 5 million cells/10 mL. Cells were then treated with 200 nM or 1 μM of the indicated compounds or with DMSO control for 6 hours. Total RNA was extracted from 5 million cells using the RNeasy Plus Mini Kit (Qiagen) with a gDNA eliminator mini column to remove genomic DNA. mRNA was reverse transcribed into cDNA using the SuperScript III First-Strand Synthesis Kit (Life Technologies) using an oligo-dT primer to capture polyadenylated mRNAs. Quantitative PCR (qPCR) using transcript-specific Taqman probes (Applied Biosystems) was used to assess the effect of compound treatment on the expression of the indicated mRNA transcripts. All experiments shown were performed in biological triplicate. Each individual biological sample was qPCR-amplified in technical duplicate. Error bars are +/−SD. Expression data from drug treatments were normalized to GAPDH probe.
Jurkat cells were seeded at a density of 5 million cells/10 mL. Cells were then treated with 200 nM or 1 μM of the indicated compounds or with DMSO control for 6 hrs. […] Quantitative PCR (qPCR) using transcript-specific Taqman probes (Applied Biosystems) was used to assess the effect of compound treatment on the expression of the indicated mRNA transcripts. […]

[5] = 72 h, CellTiter-Glo, read-out: IC50 on Jurkat T-ALL cell proliferation

Sequence of CDK7/CycH (P50613 whole entry): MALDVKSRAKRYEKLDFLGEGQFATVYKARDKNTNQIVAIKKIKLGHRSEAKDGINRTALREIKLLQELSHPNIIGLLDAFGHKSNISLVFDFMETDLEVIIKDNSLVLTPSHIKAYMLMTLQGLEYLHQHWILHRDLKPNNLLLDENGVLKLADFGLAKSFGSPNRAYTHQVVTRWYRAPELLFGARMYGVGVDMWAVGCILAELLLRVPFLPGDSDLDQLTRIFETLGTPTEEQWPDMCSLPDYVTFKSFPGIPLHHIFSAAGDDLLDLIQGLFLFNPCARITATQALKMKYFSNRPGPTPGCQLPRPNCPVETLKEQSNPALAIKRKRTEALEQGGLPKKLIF
Sequence of CDK7/CycH (P51946 whole entry partner): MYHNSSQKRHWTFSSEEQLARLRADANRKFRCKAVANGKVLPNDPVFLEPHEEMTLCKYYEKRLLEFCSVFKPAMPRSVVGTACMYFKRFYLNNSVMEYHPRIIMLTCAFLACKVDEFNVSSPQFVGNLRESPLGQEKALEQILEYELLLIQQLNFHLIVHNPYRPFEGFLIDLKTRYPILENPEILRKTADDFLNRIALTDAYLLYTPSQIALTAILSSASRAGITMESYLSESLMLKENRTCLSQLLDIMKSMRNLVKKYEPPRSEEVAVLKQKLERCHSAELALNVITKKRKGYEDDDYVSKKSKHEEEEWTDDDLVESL
Sequence of CDK9/CycT (P50750 whole entry): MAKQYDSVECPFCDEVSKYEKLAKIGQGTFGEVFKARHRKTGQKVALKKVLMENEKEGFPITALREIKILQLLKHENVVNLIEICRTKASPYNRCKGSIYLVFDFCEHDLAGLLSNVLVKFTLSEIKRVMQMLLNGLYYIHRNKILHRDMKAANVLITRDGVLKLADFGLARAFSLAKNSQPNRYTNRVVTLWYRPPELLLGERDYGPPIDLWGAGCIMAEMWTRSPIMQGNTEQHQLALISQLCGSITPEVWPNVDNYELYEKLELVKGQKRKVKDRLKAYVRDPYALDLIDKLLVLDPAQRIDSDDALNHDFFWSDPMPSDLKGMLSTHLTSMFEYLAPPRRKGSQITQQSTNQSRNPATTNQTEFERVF
Sequence of CDK9/CycT (O60563 whole entry partner): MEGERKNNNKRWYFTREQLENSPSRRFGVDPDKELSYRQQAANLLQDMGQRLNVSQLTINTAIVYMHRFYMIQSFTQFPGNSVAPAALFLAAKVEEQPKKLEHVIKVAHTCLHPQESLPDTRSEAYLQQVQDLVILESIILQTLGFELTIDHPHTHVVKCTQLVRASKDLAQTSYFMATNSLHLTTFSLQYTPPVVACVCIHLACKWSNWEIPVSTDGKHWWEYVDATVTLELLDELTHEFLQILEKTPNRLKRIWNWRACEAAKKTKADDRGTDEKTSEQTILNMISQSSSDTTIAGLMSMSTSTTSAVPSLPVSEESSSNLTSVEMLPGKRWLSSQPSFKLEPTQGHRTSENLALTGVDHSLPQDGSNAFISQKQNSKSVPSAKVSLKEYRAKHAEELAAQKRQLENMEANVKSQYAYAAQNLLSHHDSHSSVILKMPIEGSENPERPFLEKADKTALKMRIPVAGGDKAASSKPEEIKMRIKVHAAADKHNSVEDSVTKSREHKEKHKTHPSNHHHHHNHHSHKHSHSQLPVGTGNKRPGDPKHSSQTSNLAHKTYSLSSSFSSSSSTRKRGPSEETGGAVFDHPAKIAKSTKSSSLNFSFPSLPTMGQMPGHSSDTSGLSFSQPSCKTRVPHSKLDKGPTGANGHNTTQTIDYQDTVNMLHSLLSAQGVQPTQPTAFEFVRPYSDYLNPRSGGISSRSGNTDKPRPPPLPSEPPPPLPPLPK
T1 sequence (Q9NYV4 whole entry): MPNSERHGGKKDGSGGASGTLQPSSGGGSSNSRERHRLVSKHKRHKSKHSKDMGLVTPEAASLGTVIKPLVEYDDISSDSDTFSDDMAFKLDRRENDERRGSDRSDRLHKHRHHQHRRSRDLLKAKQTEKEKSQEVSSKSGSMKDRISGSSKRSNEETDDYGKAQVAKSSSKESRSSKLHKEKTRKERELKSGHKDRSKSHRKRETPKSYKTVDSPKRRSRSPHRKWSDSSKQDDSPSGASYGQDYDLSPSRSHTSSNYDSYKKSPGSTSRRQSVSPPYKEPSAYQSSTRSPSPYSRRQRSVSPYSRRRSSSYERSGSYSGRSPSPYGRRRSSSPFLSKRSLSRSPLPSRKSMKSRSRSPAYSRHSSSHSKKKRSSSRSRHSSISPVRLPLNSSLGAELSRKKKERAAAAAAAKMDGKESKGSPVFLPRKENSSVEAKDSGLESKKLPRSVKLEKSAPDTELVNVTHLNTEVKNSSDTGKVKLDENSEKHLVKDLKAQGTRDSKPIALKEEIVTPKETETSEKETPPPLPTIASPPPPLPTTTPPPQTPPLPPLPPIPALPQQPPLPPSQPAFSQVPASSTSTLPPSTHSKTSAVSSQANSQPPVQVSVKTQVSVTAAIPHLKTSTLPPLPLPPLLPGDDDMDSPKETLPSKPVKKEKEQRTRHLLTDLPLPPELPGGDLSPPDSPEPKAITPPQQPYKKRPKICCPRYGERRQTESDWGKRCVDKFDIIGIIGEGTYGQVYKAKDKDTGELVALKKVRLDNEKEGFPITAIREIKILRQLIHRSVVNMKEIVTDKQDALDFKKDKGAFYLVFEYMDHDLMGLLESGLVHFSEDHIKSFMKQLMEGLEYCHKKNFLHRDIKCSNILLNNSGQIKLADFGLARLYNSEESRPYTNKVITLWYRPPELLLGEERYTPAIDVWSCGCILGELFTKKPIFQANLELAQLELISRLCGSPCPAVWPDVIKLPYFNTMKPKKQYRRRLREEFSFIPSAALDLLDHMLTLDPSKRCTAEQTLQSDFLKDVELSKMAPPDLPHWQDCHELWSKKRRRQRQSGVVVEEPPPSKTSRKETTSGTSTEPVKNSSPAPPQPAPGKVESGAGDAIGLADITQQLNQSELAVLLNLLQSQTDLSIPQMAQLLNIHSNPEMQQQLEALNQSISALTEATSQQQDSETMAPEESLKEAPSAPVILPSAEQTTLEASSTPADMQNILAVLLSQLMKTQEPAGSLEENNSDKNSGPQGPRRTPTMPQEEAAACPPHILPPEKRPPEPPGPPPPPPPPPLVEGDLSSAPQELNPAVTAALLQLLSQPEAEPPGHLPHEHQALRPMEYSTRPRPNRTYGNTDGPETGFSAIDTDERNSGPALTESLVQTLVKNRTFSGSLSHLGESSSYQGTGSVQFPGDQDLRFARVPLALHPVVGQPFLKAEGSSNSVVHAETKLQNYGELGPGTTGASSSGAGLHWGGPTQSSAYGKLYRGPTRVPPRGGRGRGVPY
T1 sequence (O75909 whole entry partner): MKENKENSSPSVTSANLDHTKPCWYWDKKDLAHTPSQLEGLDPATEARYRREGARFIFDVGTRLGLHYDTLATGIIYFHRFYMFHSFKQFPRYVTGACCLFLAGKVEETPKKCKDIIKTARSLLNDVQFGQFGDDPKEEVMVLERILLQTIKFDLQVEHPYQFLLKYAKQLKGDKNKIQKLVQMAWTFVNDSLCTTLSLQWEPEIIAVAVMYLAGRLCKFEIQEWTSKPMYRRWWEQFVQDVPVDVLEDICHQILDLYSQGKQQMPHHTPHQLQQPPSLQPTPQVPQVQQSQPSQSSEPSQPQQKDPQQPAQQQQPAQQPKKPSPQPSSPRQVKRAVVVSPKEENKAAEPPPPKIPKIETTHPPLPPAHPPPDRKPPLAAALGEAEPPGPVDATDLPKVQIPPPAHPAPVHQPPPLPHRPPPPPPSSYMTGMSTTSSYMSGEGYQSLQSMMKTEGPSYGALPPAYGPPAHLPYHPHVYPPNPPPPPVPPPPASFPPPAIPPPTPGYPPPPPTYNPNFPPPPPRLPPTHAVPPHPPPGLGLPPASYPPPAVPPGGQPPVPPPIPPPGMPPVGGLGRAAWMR
Sequence of CDK12/CCNK complex (Q9NYV4 whole entry): as the sequence (Q9NYV4 whole entry) above
Sequence of CDK12/CCNK complex (O75909 whole entry partner): as the sequence (O75909 whole entry partner) above
T2 sequence (P50613 2-346 limits assumed): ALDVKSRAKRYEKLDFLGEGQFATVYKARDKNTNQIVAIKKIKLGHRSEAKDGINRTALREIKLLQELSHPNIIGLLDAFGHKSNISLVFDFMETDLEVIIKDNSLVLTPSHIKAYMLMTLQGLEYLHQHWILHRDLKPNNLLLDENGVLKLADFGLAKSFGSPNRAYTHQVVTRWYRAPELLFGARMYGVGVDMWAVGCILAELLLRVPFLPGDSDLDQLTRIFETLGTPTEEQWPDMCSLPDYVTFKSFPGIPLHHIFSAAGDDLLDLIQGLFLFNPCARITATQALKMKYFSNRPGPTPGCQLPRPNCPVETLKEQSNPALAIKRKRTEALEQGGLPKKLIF
T2 sequence (P51946 whole entry partner): as the sequence (P51946 whole entry partner) above
T2 sequence (P51948 whole entry partner): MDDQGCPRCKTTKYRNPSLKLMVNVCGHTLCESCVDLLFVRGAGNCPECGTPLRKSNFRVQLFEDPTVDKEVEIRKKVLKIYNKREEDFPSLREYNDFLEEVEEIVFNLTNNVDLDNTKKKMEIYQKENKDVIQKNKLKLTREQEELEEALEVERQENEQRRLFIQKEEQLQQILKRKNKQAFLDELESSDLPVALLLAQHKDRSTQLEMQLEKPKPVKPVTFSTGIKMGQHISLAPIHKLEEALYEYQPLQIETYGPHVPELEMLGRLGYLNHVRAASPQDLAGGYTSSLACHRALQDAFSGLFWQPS

Structure (SMILES) | IC50 (CDK7/CycH) [µM] | IC50 (CDK9/CycT) [µM] | Mode of inhibition of Jurkat T-ALL cell proliferation (Jurkat cells [1]) | IC50 (Jurkat cells [1]; 72 h, read-out: IC50 on Jurkat T-ALL cell proliferation) [µM] | IC50 (Jurkat cells [1]; read-out: Jurkat IC50) [µM] | IC50 (CDK2/CycA) [µM] | Pulldown of Cyclin K by biotin-THZ1 (CDK12 binding) (CDK12) | Pulldown of Cyclin H by biotin-THZ1 (CDK7 binding) (CDK7) | Inhibition of Jurkat cell viability with and without washout (Jurkat cells [2]) | Effect on Polymerase II Serine 2 phosphorylation and MCL1 levels with and without washout [3] | Kinases bound in Jurkat cells (competition with desthiobiotin-ATP probe) (CDK12 and CDK13) | Labeling of CDK12 (mass shift) (CDK12/CCNK complex) | IC50 (Jurkat cells [1]; [5]) [µM] | Downregulation of TAL1, RUNX1, MYB transcripts [4]
C=CC(=O)Nc1cccc(Nc2cc(N3CCCCC3CCO)nc3c(CC)cnn23)c1 (stereo not drawn) [E-9(SB1-E-23), N-(3-(3-Ethyl-5-(2-(2-hydroxyethyl)piperidin-1-yl)pyrazolo[1,5-a]pyrimidin-7-ylamino)phenyl)acrylamide] | 1.09 | 0.0216 | irreversiably inhibit | < 0.1 | 0.0788 | 0.25 | blocks the pulldown of Cyclin K | not able to bind to CDK7 | irreversibly inhibit Jurkat cell viability | irreversible effect | binds predominantly CDK12 and CDK13 | Only the masses of CDK12 proteins shift after treatment |  | 
C=CC(=O)Nc1cccc(Nc2cc(N[C@H]3CC[C@H](N(C)C)CC3)nc3c(CC)cnn23)c1 [SB1-E-21, N-(3-(5-((1r,4r)-4-(Dimethylamino)cyclohexylamino)-3-ethylpyrazolo[1,5-a]pyrimidin-7-ylamino)phenyl)acrylamide] | 1.21 | 0.226 |  |  | 0.318 | 1.22 |  |  |  |  |  |  | > 0.3 | potently reduce
C=CC(=O)Nc1cccc(Nc2cc(N[C@H]3CC[C@H](N(C)C)CC3)nc3c(C(C)C)cnn23)c1 [SB1-E-26, N-(3-(5-((1r,4r)-4-(Dimethylamino)cyclohexylamino)-3-isopropylpyrazolo[1,5-a]pyrimidin-7-ylamino)phenyl)acrylamide] | 1.09 | 0.429 |  |  | 0.518 | 0.939 |  |  |  |  |  |  | > 0.3 | potently reduce
C=CC(=O)Nc1ccc(C(=O)Nc2cccc(Nc3nc(N4CCCCC4CCO)nc4c3ncn4C(C)C)c2)cc1 (stereo not drawn) [THZ-4-124-1, 4-Acrylamido-N-(3-((2-(2-(2-hydroxyethyl)piperidin-1-yl)-9-isopropyl-9H-purin-6-yl)amino)phenyl)benzamide] | 0.122 | 0.373 |  |  | 0.117 | 0.976 |  |  |  |  |  |  |  | 
CCc1cnn2c(Nc3cccc(NC(=O)c4ccc(NC(=O)/C=C/CN(C)C)cc4)c3)cc(N3CCCC(N)C3)nc12 (stereo not drawn) [THZ-4-128-1, (E)-N-(3-((5-(3-Aminopiperidin-1-yl)-3-ethylpyrazolo[1,5-a]pyrimidin-7-yl)amino)phenyl)-4-(4-(dimethylamino)but-2-enamido)benzamide] | 0.0468 | 0.0734 |  |  | 1.04 | 17.1 |  |  |  |  |  |  |  | 
C=CC(=O)Nc1cccc(Nc2nc(N3CCCCC3CCO)nc3c2ncn3C(C)C)c1 (stereo not drawn) [THZ-4-134-1, N-(3-((2-(2-(2-Hydroxyethyl)piperidin-1-yl)-9-isopropyl-9H-purin-6-yl)amino)phenyl)acrylamide] | 1.18 | 0.379 |  |  | 0.522 | 0.163 |  |  |  |  |  |  |  | 

Reference: patent US12098154B2, “Inhibitors of cyclin-dependent kinases” (Dana-Farber Cancer Institute, Inc., priority 2015, dated 2024)
